Values quoted from earlier work, collected in US8642577B2 (priority 2005, dated 2014).

Test system: poxvirus
Conditions: in vivo, po

| Structure (SMILES) | activity against poxvirus when given orally |
| --- | --- |
| Nc1ccn(C[C@@H](CO)OCP(=O)(O)O)c(=O)n1 [CDV, cidofovir] | inactive when given orally |
| Nc1ccn(C[C@H]2COP(=O)(O)CO2)c(=O)n1 [cCDV, cyclic cidofovir] | inactive when given orally |
